Residues, ends and D or L forms follow the SMILES beside them.
What was measured:
[1] = Single dose oral and intra-artery bioavailability study in rabbits; conditions: oral vs intra-artery, 10 mg/Kg, six rabbits, mean ± s.e.m.
Procedure: Prodrug 1a was subjected to single dose oral and intra-artery (i.a.) administrations on 6 fasted New Zealand white rabbits for oral bioavailability study.
Single intra-artery dose of prodrug 1a or the parent drug was administered in six fasted New Zealand white rabbits, weighting 2.5-3.0 Kg, via ear artery. Blood samples were withdrawn with heparinized syringes from the contralateral artery at time intervals ranged from 1 min to 3.5 h. Freshly drawn heparinized blood was treated with extraction buffer (1 mol of Tris and 20 g of EDTA per liter, pH 8.6) and then extracted with alumina (100 g). The alumina was extracted with acidic buffer and the extract subjected to HPLC analysis.
After wash-out period, the same rabbits were used for single oral dose administration of prodrug la with a feeding tube. […] Prodrug 1a and dihydroxybenzylamine,used as an internal standard, were detected with electrochemical detector at 0.750 V of oxidation potential. The maximal plasma concentration (Cmax) and the time to the maximal plasma concentration (tmax) were determined. The area under the plasma concentration-time profile (AUC) and the terminal half-life (t1/2) were calculated. Fraction of absorption was calculated from the pharmacokinetic parameters (tmax, Cmax, AUC, t1/2) obtained from oral and intra-artery administrations.

[2] = rat jejunal perfusion, perfusate 0.1 mM; for plasma conc. (mean ± s.e.m): blood drawn after 90 min perfusion
Procedure: The intestinal absorption of the prodrugs was then investigated by measuring the plasma concentration in rats upon in situ single-pass rat jejunal perfusion, and by determining the fraction of absorption in rabbits with data obtained from single-dose intra-artery injection and oral administration.
Perfusion solutions containing 5 mM KCl, 100 mM NaCl, 10 mM MES, 6 mM D-glucose, the testing compound, and 0.02% ascorbic acid as an anti-oxidant, were adjusted to pH 6 with NaOH. Osmolarity, measured by a Wescor 5500 vapor pressure osmometer (Wescor Company, Logan, Utah, U.S.A.), was adjusted to 300±10 mOsm/kg using sodium chloride. […] In order to prevent test compounds from oxidation, perfusion solutions were freshly prepared with nitrogen gas bubbled through for 10 min before each perfusion experiment.
Male Wistar Rats were fasted overnight (16-20 h) prior to anesthesia induced by i.m. injection of urethane (1.5 g/kg body weight). Following induction of anesthesia, rats were put on a heating pat to maintain body temperature. A midline longitudinal incision was made and a 5 to 10 cm jejunal segment was cannulated at the distal end to drain perfusates into collecting tubes. The entire surgical area was then covered with parafilm to minimize temperature reduction through evaporation. Tubing and syringes were covered with aluminum foil to retard the oxidation of testing compounds. Perfusion solution was pumped through the jejunal segment at a flow rate of 0.2 mL/min by a syringe pump (Stoelting, KD Scientific, U.S.A.). The jejunal segment was prewashed initially with drug-free buffer for 10 min and then pumped with test solution. Outlet tubing samples were collected every 10 min for 6 collection periods after water and solute transport reached steady-state. After 90 min perfusion, blood sample (1-2 mL) was drawn by cardiac puncture. The blood samples were centrifuged at 3000 rpm for 10 min, the plasma were separated and stored at -20° C. before analysis. The samples were filtered through 0.2 μm membrane filters before injecting into HPLC system.
Assays of L-dopa and test compounds were performed on HPLC consisting an autosampler (Model 717, Waters, Millipore, Milford, Mass., U.S.A.), a solvent delivery pump (Model 600E, Waters), a tunable absorbence detector (Model 484 or 486, Waters), and a PC 486 computer with a chromatography manager software (Millennium 2010, Millipore). L-Dopa from the perfusate was assayed on a Spheri 5RP-18 column (ABI, 5 μm, 250×4.6 mm) at flow rate of 1.0 mL/min with mobile phase comprising MeOH:0.05M NH4 H2 PO4 buffer (pH 4.6) containing 0.02M sodium 1-pentanesulfonate=10:90 (v/v). […] Standards were injected during each assay. Linearity of standard peak area ratios was validated. Numerical computation on data were performed on Statworks and are represented as mean±standard error of mean (s.e.m) for n experiments. Treatment differences were evaluated by t test.

[3] = 37° C., 2 minutes of incubation
Procedure: Mucosa suspension was prepared from the intestine of male Wistar rats according to the method of Hu et al. [Pharm. […] After abdominal incision the intestinal segment between the beginning of the jejunum and the end of the ileum was removed and everted to let the interior exposed. The mucosal layer was washed with normal saline and then scraped with glass microscope slides. The scraping was collected, diluted 1:9 (v/v) with ice cold isotonic sucrose solution, and ultrasonicated for 200 seconds. The suspension was centrifuged at 2500 rpm for 5 minutes. The supernatant suspension was stored in an ice bath before subjected to degradation study. All the stability studies were conducted right after the mucosa suspension was prepared. One hundred microliter of a methanolic solution of the test compound (1 mg/mL) was diluted with 2.4 mL of an isotonic mannitol buffer solution (pH=6.5) as the stock solution. One hundred microliter of the stock solution was mixed with equal volume of the mucosal suspension. The mixture was incubated in a 37° C. water bath and subjected to sampling at time intervals between zero to 60 minutes. Two hundred microliter of each sampled solution was denatured with MeOH (0.8 mL) and centrifuged at 14000 rpm for 5 minutes. Twenty to one hundred microliters each of the solution was subjected to HPLC assay on a Lichrospher 100 RP-18 column (E. Merck, 5 μm, 250×3.9 mm). […]

[4] = system: 6-hydroxydopamine-lesioned male Wistar rats; experiment: Rotational behavior of nigrostriatal-lesioned rats elicited by (+)-methamphetamine; assay type: in vivo, rat; conditions: for rotation: control saline 552 ± 47
Description: Anti-Parkinsonism effect was determine by virtue of measuring the change in rotational behavior of 6-hydroxydopamine-lesioned male Wistar rats [Hudson J. L.; Levin. D. R.; Hoffer, B. J. A Sixteen-Channel Automated Rotometer System For Reliable Measurement of Turning Behavior in 6-Hydroxydopamine Lesioned and Transplanted Rats. Cell Transplantation 1993, 2, 507-514; Hudson J. L, Van Horne C. G.; Stromberg I.; Brock. S.; Clayton, J.; Masserano, J.; Hoffer, B. J.; Gerhardt, G. A. Correlation of Apomorphine and Amphetamine Induced Turning With Nigrostriatal Dopamine Content in Unilateral 6-Hydroxydopamine Lesioned Rats. Brain Res. 1993, 626, 167-174].
Twenty male Wistar rats weighing 150-175 grams were used. Within a 36 h window, all rats were lesioned by the same investigator using the following procedure. Surgical anesthesia was produced by i.p. injection of 30 mg/kg of sodium pentobarbtal. The animals were placed in a stereotaxic frame and the skin over the skull was incised and reflected. Bregma was used as the coordinate origin and a burr-hole was placed in the cranium over the injection site. After a small-needle puncture of the dura and lowering into the brain parenchyma, a solution of […] of 6-hydroxydopamine HCl was injected using a microliter syringe and a 26 gauge dome-tipped needle (AP-4.4 mm, ML 1.3 mm. DV -7.8 mm). The needle was removed after a 1 min delay and the wound was closed. Convalescence occurred in home cages with food and water ad libitum for the duration of the experiment.
On each testing day, the rats were placed into rotometer bowls and were allowed to acclimatize for 10 min. They then received a subcutaneous dose of (+)-methamphetamine (4 mg/kg in vehicle) and were allowed to move within the bowls for at least 60 min, or until they stopped turning. The rats were returned to the home cages after the experiment until next testing session.
The degree of dopamine depletion was evaluated by monthly testing of rotational behavior in a multichannel rotometer system after methamphetamine (4 mg/Kg, s.c.) injection.

vas deferences = conditions: continuous perfusion of 1 mg/mL for one min
Procedure: (§1) Each experiment was repeated at least three times. The mean responses before and after drug treatment were compared by means of Student's t test, with p<0.05, indicating significance. The contractile force of both pulmonary artery and vas deferences was elicited after continuous perfusion of dopamine (1 mg/mL) for one min.
(§2) Male guinea pigs (250-350 g) were stunned and bled. The vas deferences and pulmonary artery were isolated. A piece of the smooth muscle (about 1 mm wide and 7 mm long) was dissected. The isolated part was mounted vertically on an organ bath (1 mL capacity), kept at 35° C. and superfused with a physiological solution at a constant rate of about 2 mL /min (35° C.). The normal physiological solution had the following composition: NaCl (117 mM), KCl (5.9 mM), CaCl2 (2.4 mM), MgCl2 (1.2 mM), D-glucose (11.8 mM) and Tris 20 (pH 7.4 at 35° C.), aerated with 100% oxygen. Drugs tested were perfused for one min and then superfused with normal physiological solution or otherwise indicated. Tension was recorded isometrically by means of a Grass FT03 tranducer connected to a Grass model 7E polygraph or by a Gould UC2 transducer connected to a Gould 2200S recorder. Each experiment was repeated at least three times with different preparations.

pulmonary artery = conditions: continuous perfusion of 1 mg/mL for one min
Procedure: as §1, §2

[5] = cited from earlier work
[6] = i.p. 1-2 hours prior to (+)-methamphetamine

D-phenylglycine-L-dopa [compound 1a]
fraction of absorption [1]: 76 ± 24% | plasma concentration, fold higher than that of L-dopa [2]: 60-100 fold | plasma conc. (mean ± s.e.m) [2]: 64.65 ± 5.45

NCC(=O)N[C@@H](Cc1ccccc1)C(=O)O [L-glycine-L-phenylalanine] (H-Gly-Phe-OH)
fraction degraded in rat intestinal mucosa suspension [3]: 81%

D-Phenylglycine-L-serine-L-dopa [2a]
plasma conc. (mean ± s.e.m) [2]: 8.49 ± 1.36

D-p-hydroxyphenylglycine-L-serine-L-dopa [2b]
plasma concentration, fold higher than that of L-dopa [2]: 60-100 fold | plasma conc. (mean ± s.e.m) [2]: 62.1 ± 3.53

D-p-hydroxyphenylglycine-L-dopa [1b]
plasma conc. (mean ± s.e.m) [2]: 0.60 ± 0.01

L-dopa-D-phenylglycine [1c]
plasma concentration, fold higher than that of L-dopa [2]: 60-100 fold | plasma conc. (mean ± s.e.m) [2]: 104.00 ± 12.98

D-p-hydroxyphenylglycine-L-proline-L-dopa [compound 2d]
rotation ([4]; 9.6 mg/kg i.p., (+)-methamphetamine injected 1 h after treatment): 223 ± 95 turns/h | rotation ([4]; 9.6 mg/kg i.p., (+)-methamphetamine injected 2 h after treatment): 247 ± 67 turns/h | anti-rotation activity compared with L-dopa (in words) [4, 6]: slightly higher than that of L-dopa | effect on (+)-methamphetamine-induced rotation (in words) [4, 6]: significantly prohibited

NCCc1ccc(O)c(O)c1 [dopamine]
contraction of vas deferences (resting tension) (vas deferences): elicited | contraction of pulmonary artery (resting tension) (pulmonary artery): elicited

NC(Cc1ccc(O)c(O)c1)C(=O)O [L-dopa, 2-amino-3-(3,4-dihydroxyphenyl)propanoic acid]
rotation ([4]; 4.2 mg/kg i.p., (+)-methamphetamine injected 1 h after treatment): 287 ± 86 turns/h | AUCCSF /AUCplasma ([5]; Parkinson disease, literature (Olanow et al. 1991)): 12/100 | oral bioavailability ([5]; at up to 1000 mg/day): 33%
